Results: paper PMC9227578, “Insight into the Molecular Mechanism for the Discrepant Inhibition of Microcystins (MCLR, LA, LF, LW, LY) on Protein Phosphatase 2A” (Toxins, 2022)

Tested on: PP2A
Experiment: colorimetric protein phosphatase (PP2A) inhibition assay
Type: biochemical
Method: The biological toxicity of the typical MCs was evaluated by a colorimetric protein phosphatase inhibition assay modified by Zong et al.. First, PP2A was diluted to 5 U/mL with a buffer solution (50 mM Tris-HCl pH 7.4, 2.0 mM dithiothreitol, 1 mM MnCl2) and 1.0 g/L bovine serum albumin. Then, 10 μL of PP2A and 100 μL of test samples were mixed in a 96-well polystyrene microplate. With gentle shaking, the microtiter plates were kept at 25.0 °C for 15 min, and 90 μL p-nitrophenyl disodium orthophosphate (5 mM) was added. After 1 h, the absorbances at 405 nm were measured in a microplate reader. The inhibition of the test samples on PP2A was calculated by the formula of IPP2A (%) = (Acontrol − Asample)/Acontrol × 100%. Acontrol and Asample were the absorbance of the reference sample ([…]) and the test sample at 405 nm, respectively.

Row | Substance | inhibition sequence on PP2A | inhibition effect on PP2A
1 | MCLA | MCLR > MCLW > MCLA > MCLF > MCLY | –
2 | MCLF | MCLR > MCLW > MCLA > MCLF > MCLY | –
3 | MCLR | MCLR > MCLW > MCLA > MCLF > MCLY | much higher inhibition effect than other MCs
4 | MCLY | MCLR > MCLW > MCLA > MCLF > MCLY | lower inhibition
